Experiments:
ΔF508-CFTR [1] = target: T1, ΔF508-CFTR (Homo sapiens, UniProt P13569, DEL508-508); experiment: hBE equivalent current (Ieq) assay; format: cell-based; settings: compound at 10 uM and VX-809 at 1 uM; primary hBE cells homozygous ΔF508; 24 hours treatment
T1 construct: Primary lung epithelial cells homozygous for the Cystic Fibrosis-causing ΔF508 mutation; endogenous in cells; host or cells: primary human bronchial (lung) epithelial cells homozygous for ΔF508, differentiated at air-liquid interface
Method: Primary lung epithelial cells homozygous for the Cystic Fibrosis-causing ΔF508 mutation were differentiated for a minimum of 4 weeks in an air-liquid interface on Costar 24 well HTS filter plates prior to the equivalent current (Ieq) measurements. Cells were apically mucus-washed for 30 minutes 24h prior to treatment with compounds. The basolateral media was removed and replaced with media containing the compound of interest diluted to its final concentration from DMSO stocks. Treated cells were incubated at 37° C. and 5% CO2 for 24 hours. At the end of the treatment period, the media was changed to the Ieq experimental solution for 30 minutes before the experiment and plates are maintained in a CO2-free incubator during this period. The plates containing the cells were then placed in pre-warmed heating blocks at 36° C.±0.5 for 15 minutes before measurements are taken. The transepithelial voltage (VT) and conductance (GT) were measured using a custom 24 channel current clamp (TECC-24) with 24 well electrode manifold. The Ieq assay measurements were made following additions with standardized time periods: • 1. The baseline VT and GT values were measured for approximately 20 minutes. • 2. Benzamil was added to block ENaC for 15 minutes. • 3. Forskolin plus VX-770 were added to maximally activate ΔF508-CFTR for 27 minutes. • 4. Bumetanide was added to inhibit the NaK2Cl cotransporter and shut-off secretion of chloride.
The activity data captured was the area under the curve (AUC) for the traces of the equivalent chloride current. The AUC was collected from the time of the forskolin/VX-770 addition until the inhibition by bumetanide addition. Correction in response to compound treatment was scored as the increase in the AUC for compound-treated samples over that of vehicle-treated samples. (** indicates activity ≥200% of VX-809 (1 uM) with compound at 10 uM and VX-809 at 1 uM; * indicates activity 100-200% of VX-809 (1 uM) with compound at 10 uM and VX-809 at 1 uM. ^##indicates activity ≥200% of VX-809 (3 uM) with compound at 10 uM and VX-809 at 3 uM; ^#indicates activity 100-200% of VX-809 (3 uM) with compound at 10 uM and VX-809 at 3 uM

ΔF508-CFTR [2] = target: T1, ΔF508-CFTR; experiment: Ussing measurements; format: cell-based; settings: compound at 10 uM and VX-809 at 3 uM; primary hBE cells homozygous ΔF508; 24 hours treatment
Method: As discussed above, Ussing measurements are used to measure CFTR activity. In this method, primary lung epithelial cells (hBEs) homozygous for the Cystic Fibrosis-causing ΔF508 mutation are differentiated for a minimum of 4 weeks in an air-liquid interface on SnapWell filter plates prior to the Ussing measurements. Cells are apically mucus-washed for 30 minutes prior to treatment with compounds. The basolateral media is removed and replaced with media containing the compound of interest diluted to its final concentration from DMSO stocks. Treated cells are incubated at 37° C. and 5% CO2 for 24 hours. At the end of the treatment period, the cells on filters are transferred to the Ussing chamber and equilibrated for 30 minutes. The short-circuit current is measured in voltage clamp-mode (Vhold=0 mV), and the entire assay is conducted at a temperature of 36° C. −36.5° C. Once the voltages stabilized, the chambers are clamped, and data is recorded by pulse readings every 5 seconds. Following baseline current stabilization, the following additions can be applied and the changes in current and resistance of the cells can be monitored: • 1. Benzamil to the apical chamber to inhibit ENaC sodium channel. • 2. Forskolin to both chambers to activate ΔF508-CFTR by phosphorylation. • 3. Genistein to both chambers to potentiate ΔF508-CFTR channel opening. • 4. CFTRinh-172 to the apical chamber to inhibit ΔF508-CFTR Cl-conductance.
The inhibitable current (that current that is blocked by CFTRinh-172) is measured as the specific activity of the ΔF508-CFTR channel, and increases in response to compound in this activity over that observed in vehicle-treated samples are identified as the correction of ΔF508-CFTR function imparted by the compound tested.

T1 sequence (P13569 with tags, fused parts or gaps DEL508-508): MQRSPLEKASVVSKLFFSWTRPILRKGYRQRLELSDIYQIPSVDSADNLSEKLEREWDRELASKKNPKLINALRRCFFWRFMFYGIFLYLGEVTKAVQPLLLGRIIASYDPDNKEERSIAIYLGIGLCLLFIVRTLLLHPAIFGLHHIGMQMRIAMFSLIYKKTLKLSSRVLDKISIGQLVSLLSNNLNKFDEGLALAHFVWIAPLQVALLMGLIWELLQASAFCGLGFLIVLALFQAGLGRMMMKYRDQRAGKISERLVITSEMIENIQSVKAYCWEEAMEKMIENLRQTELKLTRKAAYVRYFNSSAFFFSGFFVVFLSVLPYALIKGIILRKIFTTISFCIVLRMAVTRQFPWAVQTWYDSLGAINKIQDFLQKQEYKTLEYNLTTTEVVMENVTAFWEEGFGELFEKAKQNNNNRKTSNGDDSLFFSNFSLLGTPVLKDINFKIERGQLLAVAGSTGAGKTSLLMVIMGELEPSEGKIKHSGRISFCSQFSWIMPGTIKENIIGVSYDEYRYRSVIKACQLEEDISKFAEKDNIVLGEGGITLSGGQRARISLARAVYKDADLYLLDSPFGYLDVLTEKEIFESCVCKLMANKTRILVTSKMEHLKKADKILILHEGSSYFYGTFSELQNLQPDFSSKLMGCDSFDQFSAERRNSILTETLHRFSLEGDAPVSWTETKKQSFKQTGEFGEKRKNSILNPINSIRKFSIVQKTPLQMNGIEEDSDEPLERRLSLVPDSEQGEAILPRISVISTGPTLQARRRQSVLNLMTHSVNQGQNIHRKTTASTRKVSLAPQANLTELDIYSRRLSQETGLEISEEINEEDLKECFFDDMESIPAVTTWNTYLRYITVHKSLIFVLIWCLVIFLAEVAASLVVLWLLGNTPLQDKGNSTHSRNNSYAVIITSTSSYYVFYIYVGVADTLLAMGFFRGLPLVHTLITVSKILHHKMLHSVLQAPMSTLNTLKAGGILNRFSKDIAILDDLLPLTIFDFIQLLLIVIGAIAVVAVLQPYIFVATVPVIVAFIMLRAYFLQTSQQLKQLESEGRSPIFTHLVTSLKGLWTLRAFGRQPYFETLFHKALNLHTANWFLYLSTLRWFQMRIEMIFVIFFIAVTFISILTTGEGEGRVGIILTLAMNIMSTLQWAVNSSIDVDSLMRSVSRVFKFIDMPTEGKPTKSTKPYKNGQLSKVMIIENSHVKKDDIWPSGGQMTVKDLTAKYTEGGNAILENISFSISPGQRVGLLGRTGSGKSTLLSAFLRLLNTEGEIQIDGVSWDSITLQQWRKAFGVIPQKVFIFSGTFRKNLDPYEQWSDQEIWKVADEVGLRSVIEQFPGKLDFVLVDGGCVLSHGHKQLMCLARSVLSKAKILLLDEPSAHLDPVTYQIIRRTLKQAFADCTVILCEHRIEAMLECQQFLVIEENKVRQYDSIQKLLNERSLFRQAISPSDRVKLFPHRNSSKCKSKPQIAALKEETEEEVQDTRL

Structure (SMILES)	leq (AUC of equivalent chloride current, activity relative to VX-809) (ΔF508-CFTR [1])	Ussing (CFTRinh-172 inhibitable current, activity relative to VX-809) (ΔF508-CFTR [2])
O=C(NCC1CCCO1)c1ncc(-c2ccccc2)s1 (stereo not drawn) [Example 1, 5-phenyl-N-((tetrahydrofuran-2-yl)methyl)thiazole-2-carboxamide]	** (activity ≥200% of VX-809 (1 uM) with compound at 10 uM and VX-809 at 1 uM)	
COCCNC(=O)c1ncc(-c2ccccc2)s1 [Example 2, N-(2-methoxyethyl)-5-phenylthiazole-2-carboxamide]	** (activity ≥200% of VX-809 (1 uM) with compound at 10 uM and VX-809 at 1 uM)	
O=C(NCCN1CCOCC1)c1ncc(-c2ccccc2)s1 [Example 3, N-(2-morpholinoethyl)-5-phenylthiazole-2-carboxamide]	** (activity ≥200% of VX-809 (1 uM) with compound at 10 uM and VX-809 at 1 uM)	
O=C(NCCCn1ccnc1)c1ncc(-c2ccccc2)s1 [Example 4, N-(3-(1H-imidazol-1-yl)propyl)-5-phenylthiazole-2-carboxamide]	** (activity ≥200% of VX-809 (1 uM) with compound at 10 uM and VX-809 at 1 uM)	
Cn1nccc1CCCNC(=O)c1ncc(-c2ccccc2)s1 [Example 5, N-(3-(1-methyl-1H-pyrazol-5-yl)propyl)-5-phenylthiazole-2-carboxamide]	* (activity 100-200% of VX-809 (1 uM) with compound at 10 uM and VX-809 at 1 uM)	
O=C(NCCc1nnc(CO)s1)c1ncc(-c2ccccc2)s1 [Example 6, N-(2-(5-(hydroxymethyl)-1,3,4-thiadiazol-2-yl)ethyl)-5-phenylthiazole-2-carboxamide]	** (activity ≥200% of VX-809 (1 uM) with compound at 10 uM and VX-809 at 1 uM)	## (activity ≥200% of VX-809 (3 uM) with compound at 10 uM and VX-809 at 3 uM)
O=C(NCCc1nnc(CO)o1)c1ncc(-c2ccccc2)s1 [Example 7, N-(2-(5-(hydroxymethyl)-1,3,4-oxadiazol-2-yl)ethyl)-5-phenylthiazole-2-carboxamide]	** (activity ≥200% of VX-809 (1 uM) with compound at 10 uM and VX-809 at 1 uM)	## (activity ≥200% of VX-809 (3 uM) with compound at 10 uM and VX-809 at 3 uM)
Cc1c(CO)nnn1CCNC(=O)c1ncc(-c2ccccc2)s1 [Example 8, N-(2-(4-(hydroxymethyl)-5-methyl-1H-1,2,3-triazol-1-yl)ethyl)-5-phenylthiazole-2-carboxamide]	** (activity ≥200% of VX-809 (1 uM) with compound at 10 uM and VX-809 at 1 uM)	## (activity ≥200% of VX-809 (3 uM) with compound at 10 uM and VX-809 at 3 uM)
Cc1nnn(CCNC(=O)c2ncc(-c3ccccc3)s2)c1CO [Example 9, N-(2-(5-(hydroxymethyl)-4-methyl-1H-1,2,3-triazol-1-yl)ethyl)-5-phenylthiazole-2-carboxamide]	** (activity ≥200% of VX-809 (1 uM) with compound at 10 uM and VX-809 at 1 uM)	
O=C(NC1CC(c2nnc(CO)o2)C1)c1ncc(-c2ccccc2)s1 (stereo not drawn) [Example 10, N-cis-3-(5-(hydroxymethyl)-1,3,4-oxadiazol-2-yl)cyclobutyl)-5-phenylthiazole-2-carboxamide]		## (activity ≥200% of VX-809 (3 uM) with compound at 10 uM and VX-809 at 3 uM)
C[C@@H](O)c1nnc(C2CC(NC(=O)c3ncc(-c4ccccc4)s3)C2)o1 (stereo partly drawn) [Example 11]		## (activity ≥200% of VX-809 (3 uM) with compound at 10 uM and VX-809 at 3 uM)
O=C(NC1CC(n2cc(CO)nn2)C1)c1ncc(-c2ccccc2)s1 (stereo not drawn) [Example 12, N-trans-3-(5-(hydroxymethyl)-1H-1,2,3-triazol-1-yl)cyclobutyl)-5-phenylthiazole-2-carboxamide]		## (activity ≥200% of VX-809 (3 uM) with compound at 10 uM and VX-809 at 3 uM)

From patent US10392378B2, “Derivatives of 5-phenyl- or 5-heteroarylathiazol-2-carboxylic amide useful for the treatment of inter alia cystic fibrosis” (Proteostasis Therapeutics, Inc., priority 2014, dated 2019)
